Source: patent US20130158084A1, “Pharmaceutical Composition Comprising Losartin For Treating or Preventing Statin BasedGrug-Induced Muscle Toxicity” (HANALL BIOPHARMA CO., LTD., priority 2011, published 2013)
Where two headings read alike, the source gives them in different places.

Tests used:
[1] = Frequency of muscular side effects according to dosage (Zocor Tablet Label); type: in vivo; conditions: dosage of 80 mg compared to 20 mg
From the text: In addition, it is reported that the side effects are increased when the concentration of the statin-based drug in blood is increased in the most cases. […] 16, 2011].

[2] = after oral administration; cited from earlier work
[3] = test system: extensor digitorum longus muscle; conditions: after three weeks
Procedure: In addition, a 0.5% MC solution or physiological saline was orally administered to a control group.
Then, the concentration of a muscle toxicity-associated enzyme, such as creatine kinase (CK) and lactate dehydrogenase (LDH) in blood was measured and a histological analysis was performed.
The rats were anesthetized with ether after three weeks of starting the administration for each experimental group; an extensor digitorum longus muscle was removed; fixed in paraffin; and then made into 5 μm coronal sections. The paraffin was removed with xylene, hydrophilicized with alcohol, and then stained with hematoxylin and eosin to observe the tissue through an optical microscope (Olympus Optical, Co., Japan).

## CCC(C)(C)C(=O)O[C@H]1C[C@@H](C)C=C2C=C[C@H](C)[C@H](CC[C@@H]3C[C@@H](O)CC(=O)O3)[C@H]21 [simvastatin]
[1]
  Increase in frequency of muscular side effects, 80 mg compared to 20 mg: at least 20 times

## CCCCc1nc(Cl)c(CO)n1Cc1ccc(-c2ccccc2-c2nn[nH]n2)cc1 [Losartan, 2-butyl-4 chloro-1-[2-(1H-tetrazol-5-yl)biphenyl-4-ylphenyl]-1H-imidazol-5-methanol]
[2]
  Time to maximum concentration in the blood (losartan molecules): within one hour

## CC(C)c1c(C(=O)Nc2ccccc2)c(-c2ccccc2)c(-c2ccc(F)cc2)n1CC[C@@H](O)C[C@@H](O)CC(=O)O [Atorvastatin, atorvastatin]
[3]; 40 mg/kg atorvastatin alone
  Degree of Muscle Tissue Damage, Scores (0: Normal, +1: internal nuclei, +2: Myositis, +3: internal nuclei + myositis): 1.0 ± 0.0
[3]; 80 mg/kg atorvastatin alone
  Degree of Muscle Tissue Damage, Scores (0: Normal, +1: internal nuclei, +2: Myositis, +3: internal nuclei + myositis): 1.8 ± 0.2
